18 molecules from US20250268903A1, “RXFP1 AGONISTS” (BRISTOL-MYERS SQUIBB COMPANY, priority 2021, published 2025) can be followed below.

The experiment deals with T1, human RXFP1 (Homo sapiens, UniProt Q9HBX9).
T1 construct: expressed in transfected cells
T1 sequence (Q9HBX9 1-757): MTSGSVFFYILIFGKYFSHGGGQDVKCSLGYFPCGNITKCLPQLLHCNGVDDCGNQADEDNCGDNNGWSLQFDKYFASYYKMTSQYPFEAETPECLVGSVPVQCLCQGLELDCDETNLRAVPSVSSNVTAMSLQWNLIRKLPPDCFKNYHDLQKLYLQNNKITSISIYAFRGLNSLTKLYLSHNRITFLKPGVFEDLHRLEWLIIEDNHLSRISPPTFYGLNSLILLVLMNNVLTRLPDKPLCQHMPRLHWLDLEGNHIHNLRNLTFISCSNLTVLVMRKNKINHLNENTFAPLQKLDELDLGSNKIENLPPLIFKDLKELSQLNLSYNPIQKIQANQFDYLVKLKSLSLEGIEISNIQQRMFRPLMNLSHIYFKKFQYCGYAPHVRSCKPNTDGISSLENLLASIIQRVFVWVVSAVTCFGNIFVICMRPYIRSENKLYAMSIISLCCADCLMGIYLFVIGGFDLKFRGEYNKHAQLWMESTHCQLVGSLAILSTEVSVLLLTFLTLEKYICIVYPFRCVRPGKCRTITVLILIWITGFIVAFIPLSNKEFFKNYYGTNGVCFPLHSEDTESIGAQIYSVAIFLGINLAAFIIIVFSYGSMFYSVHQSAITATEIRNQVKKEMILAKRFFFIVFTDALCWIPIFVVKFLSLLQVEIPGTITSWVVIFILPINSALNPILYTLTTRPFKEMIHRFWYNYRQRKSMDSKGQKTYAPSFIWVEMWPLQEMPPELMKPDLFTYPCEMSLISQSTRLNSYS
In words: hRXFP1 HEK293 cAMP assay (HTRF). It is filed as cell-based. As to conditions: HEK293 cells stably expressing human RXFP1, 30 min at room temperature. The method, boiled down:
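In a stable human RXFP1 HEK293 line, compounds acted for 30 min at RT in buffer with 0.5 mM IBMX. HTRF then quantified cellular cAMP.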

One may read the EC50 as the concentration at which the effect is half-maximal. The low end stands for a more potent agent, the high end for a less potent agent.

Each structure is given as a SMILES string.

As for `CCCc1ccc(OCCO)c(C(=O)N[C@@H]2C3CCC(/C3=C/C(F)(F)F)[C@@H]2C(=O)Nc2ccc(F)c(C(F)(F)F)c2)c1` (stereo partly drawn) [Example 108, (2S,3R,7Z)-N-[4-fluoro-3-(trifluoromethyl)phe-nyl]-3-[2-(2-hydroxyethoxy)-5-propylbenzamido]-7-(2,2,2-trifluoroethylidene)bi-cyclo[2.2.1]heptane-2-carboxamide], the midpoint of the response, the EC50, lay at 2270 nM. As for `COc1ccc(C2CC2C(=O)N2CCC(O)CC2)cc1C(=O)N[C@H]1[C@@H](C(=O)Nc2ccc(F)c(C(F)(F)F)c2)[C@H]2CC[C@@H]1/C2=C\C(F)(F)F` (single isomer, unassigned) [Example 326], the figure is 4010 nM; as for `COc1ccc(/C=C/C(=O)N[C@H]2C[C@@H](O)C2)cc1C(=O)N[C@@H]1C2CCC(/C2=C/C(F)(F)F)[C@@H]1C(=O)Nc1ccc(F)c(C(F)(F)F)c1` (stereo partly drawn) [Example 134, (2S,3R,7Z)-N-[4-fluoro-3-(trifluoromethyl)phe-nyl]-3-{2-methoxy-5-[(1E)-2-{[(1s,3s)-3-hydroxycyclobutyl]car-bamoyl}eth-1-en-1-yl]benzamido}-7-(2,2,2-trifluoroethylidene)bi-cyclo[2.2.1]heptane-2-carboxamide], 561 nM; as for `COc1ccc(CCC(C)(C)O)cc1C(=O)N[C@@H]1C2CCC(/C2=C/C2CCC2)[C@@H]1C(=O)Nc1ccc(F)c(C(F)(F)F)c1` (stereo partly drawn) [Example 87, (2S,3R,7Z)-7-(cyclobutylmethyli-dene)-N-[4-fluoro-3-(trifluoromethyl)phe-nyl]-3-[5-(3-hydroxy-3-methylbutyl)-2-methoxybenzamido] bicyclo[2.2.1]heptane-2-carboxamide], 9 nM. Under `COc1ccc(CCC(C)C)cc1C(=O)N[C@@H]1C2CCC(/C2=C/C(F)(F)F)[C@@H]1C(=O)Nc1ccc(F)c(C(F)(F)F)c1` (stereo partly drawn) [Example 83] stands 1710 nM. Under `COc1ccc(CCC(C)(C)O)cc1C(=O)NC1C2CCC(/C2=C/C2CCCOC2)[C@@H]1C(=O)Nc1ccc(F)c(C(F)(F)F)c1` (single isomer, unassigned) [Example 172, (7Z)-N-[4-fluoro-3-(trifluoromethyl)phe-nyl]-3-[5-(3-hydroxy-3-methylbutyl)-2-methoxybenzamido]-7-[(oxan-3-yl)methylidene]bicy-clo[2.2.1]heptane-2-carboxamide] stands 39 nM. `CCN1CCN(S(=O)(=O)c2ccc(OC)c(C(=O)N[C@H]3[C@@H](C(=O)Nc4ccc(F)c(C(F)(F)F)c4)[C@H]4CC[C@@H]3/C4=C\C(F)(F)F)c2)CC1` [Example 209] showed an EC50 of 603 nM. As for `COc1c(F)cc(C(=O)NCC2(S(C)(=O)=O)CC2)cc1C(=O)N[C@H]1[C@@H](C(=O)Nc2ccc(F)c(C(F)(F)F)c2)[C@H]2CC[C@@H]1/C2=C\C(F)(F)F` [Example 368, 5-fluoro-N3-[(1R,2R,3S,4R,7Z)-3-{[4-fluoro-3-(trifluoromethyl)phenyl]carbamoyl}-7-(2,2,2-trifluoroethylidene)bicyclo[2.2.1]heptan-2-yl]-N1-[(1-methanesulfonyl-cyclopropyl)methyl]-4-methoxybenzene-1,3-dicarboxamide], the figure is 9.1 nM; as for `COc1ccc(COCC2CC3(C2)OCCO3)cc1C(=O)N[C@H]1[C@@H](C(=O)Nc2ccc(F)c(C(F)(F)F)c2)[C@H]2CC[C@@H]1/C2=C\C1CC1` [Example 286], 121 nM. In turn, `COc1ccc(CCCCCO)cc1C(=O)N[C@@H]1C2CCC(/C2=C/C(F)(F)F)[C@@H]1C(=O)Nc1ccc(F)c(C(F)(F)F)c1` (stereo partly drawn) [Example 97, (2S,3R,7Z)-N-[4-fluoro-3-(trifluoromethyl)phe-nyl]-3-[5-(5-hydroxypentyl)-2-methoxybenzamido]-7-(2,2,2-trifluoroethylidene)bi-cyclo[2.2.1]heptane-2-carboxamide] gave an EC50 of 82 nM.

`COc1ccc(CCCC(F)F)cc1C(=O)NC1C2CCC(/C2=C/C2CCC2)[C@@H]1C(=O)Nc1ccc(F)c(C(F)(F)F)c1` (stereo partly drawn) [Example 196, (7Z)-7-(cyclobutylmethyl-idene)-3-[5-(4,4-difluorobutyl)-2-methoxybenzamido]-N-[4-fluoro-3-(trifluoromethyl)phe-nyl]bicyclo[2.2.1] heptane-2-carboxamide] returned an EC50 of 32 nM.

`COc1ccc(/C=C/C(=O)N2CCC(C#N)CC2)cc1C(=O)N[C@H]1[C@@H](C(=O)Nc2ccc(F)c(C(F)(F)F)c2)[C@H]2CC[C@@H]1/C2=C\C1CC1` [Example 316, (1R,2S,3R,4R,7Z)-3-{5-[(1E)-3-(4-cyanopiperidin-1-yl)-3-oxoprop-1-en-1-yl]-2-methoxybenzamido}-7-(cyclopropylmethylidene)-N-[4-fluoro-3-(trifluoromethyl)phenyl]bicyclo[2.2.1] heptane-2-carboxamide] returned an EC50 of 96.7 nM. As for `COc1ccc(C2CC3CC(CO)CC32)cc1C(=O)N[C@H]1[C@@H](C(=O)Nc2ccc(F)c(C(F)(F)F)c2)[C@H]2CC[C@@H]1/C2=C\C1CC1` (single isomer, unassigned) [Example 352], the figure is 49.9 nM; as for `COc1ccc(CCC(C)(C)O)cc1C(=O)NC1C2CCC(/C2=C/C2CCCOC2)[C@@H]1C(=O)Nc1ccc(F)c(C(F)(F)F)c1` (single isomer, unassigned) [Example 173, (7Z)-N-[4-fluoro-3-(trifluoromethyl)phe-nyl]-3-[5-(3-hydroxy-3-methylbutyl)-2-methoxybenzamido]-7-[(oxan-3-yl)methylidene]bicy-clo[2.2.1]heptane-2-carboxamide], 186 nM; as for `COc1ccc(/C=C/C(=O)O)cc1C(=O)N[C@H]1[C@@H](C(=O)Nc2ccc(F)c(C(F)(F)F)c2)[C@H]2CC[C@@H]1/C2=C\C(F)(F)F` [Example 8, (E)-3-(3-(((1R,2R,3S,4R,Z)-3-((4-fluoro-3-(trifluoromethyl)phenyl)carbamoyl)-7-(2,2,2-trifluoroethylidene)bicyclo[2.2.1]heptan-2-yl)carbamoyl)-4-methoxyphenyl) acrylic acid], 309 nM. Under `COc1ccc(C2CC(CO)C2)cc1C(=O)N[C@H]1[C@@H](C(=O)Nc2ccc(F)c(C(F)(F)F)c2)[C@H]2CC[C@@H]1/C2=C\C1CC1` (stereo partly drawn) [Example 330, (1R,2S,3R,4R,7Z)-7-(cyclopropylmethylidene)-N-[4-fluoro-3-(trifluoromethyl)phenyl]-3-{5-[3-(hydroxymethyl)cyclobutyl]-2-methoxybenzamido} bicyclo[2.2.1]heptane-2-carboxamide] stands 79 nM; under `COc1ccc([C@H]2C[C@@H](O)C2)cc1C(=O)NC1C2CCC(/C2=C/C2CC2)[C@@H]1C(=O)Nc1ccc(F)c(C(F)(F)F)c1` (stereo partly drawn) [Example 147, (2S,3R,7Z)-7-(cyclopropylmethyli-dene)-N-[4-fluoro-3-(trifluoromethyl)phe-nyl]-3-{2-methoxy-5-[(1r,3r)-3-hydroxycyclobutyl]benzamido}bicyclo [2.2.1]heptane-2-carboxamide], 21 nM; under `COc1ccc(C2CCCC(O)C2)cc1C(=O)N[C@@H]1C2CCC(/C2=C/C(F)(F)F)[C@@H]1C(=O)Nc1ccc(F)c(C(F)(F)F)c1` (single isomer, unassigned) [Example 36], 442 nM.
